Test results reported in publication PMC10671431, “New Derivatives of N-Hydroxybutanamide: Preparation, MMP Inhibition, Cytotoxicity, and Antitumor Activity” (International Journal of Molecular Sciences, 2023).
One block for each compound: values may come before it.

Tests used:
MMP-14 = biological target: T1, MMP-14 (Homo sapiens, UniProt P50281); assay: MMP activity assay, fluorogenic substrate (MMP Inhibitor Profiling Kit); assay type: biochemical; settings: read-out: MMP-inhibiting activity IC50, MMP-14
T1 construct: the BML- prefix points to Enzo Life Sciences, own knowledge BML-AK308
Experimental: (§1) Determination of MMP activity. A fluorescently labeled substrate probe containing a fluorescent label and a fluorescence quencher, was utilized for this study. […] Enzyme activity was assessed using the MMP Inhibitor Profiling Kit (Product # BML-AK308, New York, NY, USA) according to the manufacturer’s recommendations. The nonspecific inhibitor NNGH was used as a positive control. The fluorescence of the fluorogenic substrate OmniMMP^TM RED was measured at wavelengths Ex/Em = 545/576 nm using a Spark 10M multimode plate reader (Tecan, Zurich, Switzerland). Reaction rates were expressed in relative fluorescence units (RFUs) per minute. The activity of MMPs in the presence of the studied compounds was determined as follows:Activity, % = (Vinh/Vcont) × 100,(1) where V is the initial reaction rate (RFUs/min) in the presence (Vinh) and absence (Vcont) of the studied compounds.
(§2) All tested compounds were dissolved in DMSO. The final concentration of DMSO in all samples was 0.1%. Control samples were treated with 0.1% DMSO.

MMP-2 = biological target: T2, MMP-2 (Homo sapiens, UniProt P08253); assay: as above; assay type: biochemical; settings: read-out: MMP-inhibiting activity IC50, MMP-2
T2 construct: the BML- prefix points to Enzo Life Sciences, own knowledge BML-AK308
Experimental: as §1, §2

MMP-3 = biological target: T3, MMP-3 (Homo sapiens, UniProt P08254); assay: as above; assay type: biochemical; settings: read-out: MMP-inhibiting activity IC50, MMP-3
T3 construct: the BML- prefix points to Enzo Life Sciences, own knowledge BML-AK308
Experimental: as §1, §2

MMP-9 = biological target: T4, MMP-9 (Homo sapiens, UniProt P14780); assay: as above; assay type: biochemical; settings: read-out: MMP-inhibiting activity IC50, MMP-9
T4 construct: the BML- prefix points to Enzo Life Sciences, own knowledge BML-AK308
Experimental: as §1, §2

U-251 MG = assay: Cytotoxicity, MTT test; assay type: cell-based; settings: Homo sapiens, 72 h of exposure
Experimental: (§3) Cell culture. A-172 (human glioblastoma cells), HepG2 (human hepatocellular carcinoma cells), M-HeLa (human cervical adenocarcinoma cells, M subclone), Vero (African green monkey kidney epithelial cells), and FetMSC (human embryonic mesenchymal stem cells) were purchased from the Russian Collection of Cell Cultures of Vertebrates (Institute of Cytology RAS, St. Petersburg, Russia). The U-251 MG cell line (human glioblastoma-astrocytoma) was purchased from the European Collection of Authenticated Cell Cultures (Salisbury, UK). All cells were grown at 37 °C in an atmosphere of 5% CO2. A-172 and Vero cells were cultured in DMEM medium (PanEco, Moscow, Russia). HepG2, HeLa, and U-251 MG cells were cultured in EMEM medium (PanEco). FetMSC cells were cultured in F12/DMEM medium (PanEco). All incubation media were supplemented with 10% fetal calf serum (BioWest, Nuaillé, France), 50 U/mL penicillin, and […] streptomycin (PanEco). Additionally, media for HeLa, HepG2, and U-251 MG cells were supplemented with 2 mM glutamine (PanEco) and 1% essential amino acids (PanEco), media for A-172 and Vero cells were supplemented with 4 mM glutamine, and the medium for FetMSC cells was supplemented with 3 mM glutamine. The medium for U-251 MG cells was additionally supplemented with 1 mM sodium pyruvate (PanEco).
(§4) Cytotoxicity studies. The cytotoxicity of the compounds was assessed using the MTT test. Cells were seeded into 96-well plates at varying concentrations of 5 × 10^4 cells/mL (A-172, Vero and HeLa), 7 × 10^4 cells/mL (HepG2 and U-251 MG), and 10 × 10^4 cells/mL (FetMSC). The studied compounds were added to the incubation medium 24 h after seeding at concentrations ranging from 7.8 μM to 500 μM. All compounds were dissolved in DMSO and diluted with the incubation medium to their final concentrations just before use. The incubation medium in wells was aspirated and replaced with medium containing the studied compounds. The final concentration of DMSO in all samples was 0.1%. Control samples were treated with 0.1% DMSO. After 72 h of exposure, 3-(4,5-dimethylthiazol-2-yl)-2,5-diphenyl-2H-tetrazolium bromide (MTT) (Dia-M, Moscow, Russia) was added to the incubation medium at a concentration of 0.5 mg/mL. The resulting MTT-formazan crystals were dissolved in DMSO. The optical density was measured at 570 nm with a background wavelength of 620 nm using a Spark 10M plate reader. IC50 values were determined using a median effect analysis from the dose–effect relationships.

A-172 = assay: Cytotoxicity, MTT test; assay type: cell-based, human; settings: Homo sapiens, A 172, 72 h of exposure
Experimental: as §3, §4

FetMSC = assay: Cytotoxicity, MTT test; assay type: cell-based, human; settings: Homo sapiens; 72 h of exposure, MTT
Experimental: as §3, §4

HeLa = assay: Cytotoxicity, MTT test; assay type: cell-based, human; settings: Homo sapiens, HeLa, 72 h of exposure
Experimental: as §3, §4

HepG2 = assay: Cytotoxicity, MTT test; assay type: cell-based, human; settings: Homo sapiens, HepG2, 72 h of exposure
Experimental: as §3, §4

Vero = assay: Cytotoxicity, MTT test; assay type: cell-based, African green monkey; settings: Chlorocebus sabaeus, Vero, 72 h of exposure
Experimental: as §3, §4

[1] = Cytotoxicity, MTT test, statements on all cell lines studied; assay type: cell-based; settings: human, African green monkey, 72 h of exposure, summary over cell lines, read-out: cytotoxicity IC50, cells in general
Experimental: as §3, §4

[2] = tested on: pancreatic carcinoma cells CD18; set-up: method as in PMID 24022491; settings: 5 μM, 24 h of exposure; cited from earlier work
[3] = tested on: pancreatic carcinoma cells MiaPaCa2; set-up: method as in PMID 24022491; settings: 5 μM, 24 h of exposure; cited from earlier work
[4] = tested on: CAC-1 cells (human cervical adenocarcinoma); set-up: method as in PMID 11925127; settings: 72 h of exposure, cited from earlier work
[5] = tested on: hamster pancreatic cancer cell line PGHAM-1; set-up: method as in PMID 11291083; settings: 72 h of exposure, cited from earlier work
human glioma U-251 cells = tested on: human glioma U-251 cells; set-up: method as in PMID 10048980; settings: 10 μM, 96 h of exposure; cited from earlier work
[6] = tested on: human histiocytic lymphoma cells U-937; set-up: method as in doi:10.17265/1934-7375/2015.06.002; settings: 72 h of exposure, cited from earlier work
[7] = tested on: human hepatocellular carcinoma cells HepG2; set-up: method as in doi:10.17265/1934-7375/2015.06.002; settings: 72 h of exposure, cited from earlier work
[8] = tested on: mouse breast carcinoma cells 4T1; set-up: method as in PMID 31637006; settings: concentrations up to 50 μg/mL (150.87 μM), 48 h of exposure; cited from earlier work
[9] = tested on: human breast carcinoma cells MDA-MB-435; set-up: method as in PMID 31637006; settings: concentrations up to 50 μg/mL (150.87 μM), 48 h of exposure; cited from earlier work
[10] = tested on: hamster peritoneal macrophages; settings: 72 h of exposure; cited from earlier work
[11] = tested on: co-cultured neonatal rat ventricular fibroblasts and myocytes; set-up: method as in PMID 19365278; settings: 24 h of exposure; cited from earlier work
gelatinase A (MMP-2) = biological target: gelatinase A (MMP-2); set-up: method as in earlier work; settings: read-out: IC50 for gelatinase A (MMP-2) inhibition; cited from earlier work

T4 sequence (P14780 107-444 limits assumed): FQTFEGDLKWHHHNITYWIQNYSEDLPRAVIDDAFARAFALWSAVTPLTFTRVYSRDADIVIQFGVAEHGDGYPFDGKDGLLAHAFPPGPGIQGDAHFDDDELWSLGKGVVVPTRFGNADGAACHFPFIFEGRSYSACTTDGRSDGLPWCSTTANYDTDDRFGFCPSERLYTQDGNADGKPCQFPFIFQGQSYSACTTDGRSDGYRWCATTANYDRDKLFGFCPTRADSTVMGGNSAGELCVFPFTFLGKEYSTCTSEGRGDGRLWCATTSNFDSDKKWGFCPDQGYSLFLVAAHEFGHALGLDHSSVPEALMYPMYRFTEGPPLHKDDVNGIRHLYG
T2 sequence (P08253 110-446 limits assumed): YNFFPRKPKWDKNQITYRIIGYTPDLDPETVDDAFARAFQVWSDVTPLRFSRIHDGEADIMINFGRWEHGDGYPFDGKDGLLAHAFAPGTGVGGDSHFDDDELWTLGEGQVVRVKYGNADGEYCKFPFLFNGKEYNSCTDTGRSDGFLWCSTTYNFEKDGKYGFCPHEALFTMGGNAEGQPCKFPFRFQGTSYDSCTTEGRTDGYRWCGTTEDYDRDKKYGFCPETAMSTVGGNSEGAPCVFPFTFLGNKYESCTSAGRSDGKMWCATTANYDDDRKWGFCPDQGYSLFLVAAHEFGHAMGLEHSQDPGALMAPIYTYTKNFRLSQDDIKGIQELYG
T3 sequence (P08254 100-272 limits assumed): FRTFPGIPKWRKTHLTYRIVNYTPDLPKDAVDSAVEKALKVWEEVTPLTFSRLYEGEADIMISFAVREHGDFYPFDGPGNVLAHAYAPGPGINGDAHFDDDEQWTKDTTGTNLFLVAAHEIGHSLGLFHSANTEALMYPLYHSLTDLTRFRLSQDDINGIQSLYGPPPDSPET

- IC50 (MMP-14): > 10 µM
- IC50 (MMP-2): > 10 µM
- IC50 (MMP-3): > 10 µM
- IC50 (MMP-9): > 10 µM
Structure (SMILES): COc1ccccc1C(=O)NNC(=O)CCC(=O)NO [Compound 5, N-hydroxy-4-[2-(2-methoxybenzoyl)hydrazinyl]-4-oxobutanamide]
- IC50 (U-251 MG): > 500 µM
- IC50 (A-172): > 500 µM
- IC50 (FetMSC): > 500 µM
- IC50 (HeLa): 194 ± 13.4 µM
- IC50 (HepG2): 221 ± 12.6 µM
- IC50 (Vero): > 500 µM
- IC50 at 72 h [1]: > 100 µM

Structure (SMILES): CNC(=O)[C@@H](NC(=O)[C@H](CCCc1ccccc1)[C@H](C)N(O)C=O)C(C)(C)C [GI254023X]
- toxicity to cells [2]: toxic
- toxicity to cells [3]: toxic

Structure (SMILES): O=C(O)[C@@H](Cc1c[nH]c2ccccc12)NS(=O)(=O)c1ccc(-c2nnn(-c3ccccc3)n2)cc1 [MMI-166]
- cytotoxicity IC50 [4]: higher than 50 μg/mL
- IC50 ([4]; read-out: cytotoxicity IC50): > 102 µM
- cytotoxicity IC50 [5]: higher than 100 μg/mL
- IC50 ([5]; read-out: cytotoxicity IC50): > 205 µM

Structure (SMILES): CNC(=O)[C@@H](NC(=O)[C@H](CC(C)C)[C@H](O)C(=O)NO)C(C)(C)C [Marimastat]
- reduction in cell viability (human glioma U-251 cells): 20–40%
- cytotoxicity IC50 [6]: 10.8 µg/mL
- IC50 ([6]; read-out: cytotoxicity IC50): 32.6 µM
- cytotoxicity IC50 [7]: higher than 200 μg/mL
- IC50 ([7]; read-out: cytotoxicity IC50): > 603 µM
- effect on cells [8]: no effect
- effect on cells [9]: no effect
- cytotoxicity IC50 [10]: higher than 200 μg/mL

Structure (SMILES): CC(C)[C@H](NS(=O)(=O)c1ccc(-c2ccc(Br)cc2)cc1)C(=O)O [PD166793]
- concentrations toxic to cells [11]: above 100 μM

Structure (SMILES): C=C[C@H]1C[C@@H](C)C[C@@H](C)[C@@H]1c1c(O)ccn(O)c1=O [pyridoxatin]
- IC50 (gelatinase A (MMP-2)): 15.2 µM
